Source: patent US20150231240A1, “ANTI-C16ORF54 ANTIBODIES AND METHODS OF USE THEREOF” (priority 2012, published 2015)
Square brackets hold non-standard residues; d marks the D form. Peptide text beside a SMILES is read from it. * marks the point of attachment. Dolaproine = CO[C@@H]([C@@H]1CCCN1)[C@@H](C)C(=O)O; Dil = CC[C@H](C)[C@H](NC)[C@@H](CC(=O)O)OC; X1 = C[C@@H](N*)[C@@H](O)c1ccccc1; NMeV = CN[C@H](C(=O)O)C(C)C

Key:
[1] = tested on: C16orf54 expressing Sarcoma line 1; assay: Cell viability assay, C16orf54 expressing sarcoma line 1; format: cell-based, murine; settings: 1000 cells/well, 72 hours
Protocol: (§1) Murine sarcoma cell lines that express C16orf54 were prepared by virus infection of sarcoma cell lines. A PCR-amplified C16orf54 gene was cloned into a murine stem cell virus expression vector with a neomycin resistance gene and sequenced to confirm the identity. To prepare virus particles, HEK 293t cells with retroviral packaging proteins were transfected, in the presence of transfection reagent FUGENE HD (Roche), with the retroviral expression vector containing C16orf54. The virus particles collected from the supernatant of the culture media 48 hours after transfection were used to infect the sarcoma cells. After G418 selection, stable transfectants were pooled and then cloned by limiting dilution. Clones were then picked and expanded in the presence of antibiotics. Clones with the highest expression level of C16orf54 as measured by flow cytometry were expanded and banked. These cell lines were then used to immunize the syngeneic mice for antibody production and in the binding assays for antibody selection as follows.
(§2) The anti-tumor activity of unconjugated anti-C16orf54 antibodies and anti-C16orf54 antibodies that were directly conjugated with […] (ADCs) was determined in a cell viability assay using several C16orf54-expressing cell lines. Cells were plated at 1000 cells/well and incubated in the presence of antibodies or ADCs for 72 hours.

[2] = tested on: C16orf54 expressing sarcoma line 2; assay: Cell viability assay, C16orf54 expressing sarcoma line 2; format: cell-based, murine; settings: 1000 cells/well, 72 hours
Protocol: as §1, §2

## CC[C@H](C)[C@@H]([C@@H](CC(=O)N1CCC[C@H]1[C@H](OC)[C@@H](C)C(=O)N[C@H](C)[C@@H](O)c1ccccc1)OC)N(C)C(=O)[C@@H](NC(=O)[C@@H](NC)C(C)C)C(C)C [MMAE, monomethylauristatin E] (H-[NMeV]V[Dil][Dolaproine]-X1)
[1]
  IC50: 0.4 nM
[2]
  IC50: 4.1 nM
